Source: BigSolDB 2.1

O=Cc1ccc(O)c(Br)c1
solubility (mole fraction)
Settings | 278.15 K | 283.15 K | 288.15 K | 293.15 K | 298.15 K | 303.15 K | 308.15 K | 313.15 K | 318.15 K | 323.15 K
in 1,4-dioxane | – | – | 0.016 | 0.0188 | 0.022 | 0.0255 | 0.0297 | 0.0345 | 0.0402 | 0.0471
in DMF | 0.0129 | 0.0148 | 0.0171 | 0.02 | 0.0236 | 0.0275 | 0.0321 | 0.0372 | 0.0426 | 0.0488
in DMSO | – | – | – | 0.0177 | 0.0202 | 0.0235 | 0.0278 | 0.0332 | 0.0396 | 0.0467
in acetonitrile | 0.00714 | 0.00815 | 0.00947 | 0.0111 | 0.013 | 0.0152 | 0.0179 | 0.0207 | 0.0238 | 0.0273
in cyclohexane | – | 0.000283 | 0.000369 | 0.000478 | 0.000609 | 0.000766 | 0.000949 | 0.00115 | 0.00139 | 0.00167
in ethanol | 0.00755 | 0.00852 | 0.00981 | 0.0116 | 0.0137 | 0.0161 | 0.0188 | 0.0219 | 0.0254 | 0.0293
in ethyl acetate | 0.00956 | 0.011 | 0.0127 | 0.015 | 0.0176 | 0.0209 | 0.0244 | 0.0287 | 0.0332 | 0.0384
in ethylene glycol | 0.00584 | 0.00666 | 0.00772 | 0.00903 | 0.0107 | 0.0126 | 0.0149 | 0.0177 | 0.0211 | 0.0252
in isobutanol | 0.00978 | 0.0112 | 0.0131 | 0.0155 | 0.0183 | 0.0215 | 0.0251 | 0.0293 | 0.0336 | 0.0386
in isopropanol | 0.0079 | 0.00892 | 0.0104 | 0.0123 | 0.0144 | 0.0171 | 0.0201 | 0.0235 | 0.0272 | 0.0317
in methanol | 0.00568 | 0.00645 | 0.00751 | 0.00881 | 0.0103 | 0.0121 | 0.0142 | 0.0165 | 0.019 | 0.0221
in n-butanol | 0.0106 | 0.0122 | 0.0144 | 0.0168 | 0.0197 | 0.023 | 0.0269 | 0.0313 | 0.0364 | 0.0423
in n-octanol | 0.012 | 0.0138 | 0.0162 | 0.0192 | 0.0226 | 0.0267 | 0.0314 | 0.0365 | 0.0427 | 0.0498
in n-pentanol | 0.0115 | 0.0132 | 0.0153 | 0.0181 | 0.0215 | 0.0252 | 0.0295 | 0.0343 | 0.0401 | 0.0467
in n-propanol | 0.00865 | 0.01 | 0.0117 | 0.0138 | 0.0162 | 0.0191 | 0.0225 | 0.0264 | 0.0308 | 0.0361
in water | 5.93e-05 | 7.11e-05 | 9.02e-05 | 0.000116 | 0.00015 | 0.000196 | 0.00025 | 0.000314 | 0.000395 | 0.000493
